Where two headings read alike, the source gives them in different places.
Experiments:
[1] = system: RSV (RSV A2 ECACC, 0709161v); assay: RSV plaque reduction assay; type: cell-based, respiratory syncytial virus; details: mean of at least two experiments unless noted (n = 1)
How it was run: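 Eight-point compound dilutions were premixed with RSV A2 (100 PFU/well) and applied to confluent Hep-G2 cells for 2 h, followed by a 2-day incubation at 37° C. under compound-containing 0.8% CMC overlay. EC50 comes from immunostained plaque counts relative to untreated virus wells, averaged over ≥2 runs.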

Hep-G2 cells = assay: cell toxicity CC50; type: cell-based; details: mean of at least two experiments, read-out: Cell Cytotoxicity CC50
cell toxicity CC50 = type: cell-based; details: human; Hep-G2 cells; mean of at least two experiments; read-out: Cell Cytotoxicity CC50
[2] = RSV A2 in Hep-G2 cells, read-out: RSV A2 Plaque EC50
[3] = read-out: RSV A2 Plaque EC50, RSV A2 in Hep-G2 cells
[4] = human respiratory syncytial virus, HepG2, read-out: RSV A2 Plaque EC50, RSV A2 in Hep-G2 cells

| Compound | EC50 [1, 2] [nM] | CC50 (Hep-G2 cells) [µM] | EC50 [1, 3] [nM] | EC50 [1, 4] [nM] | CC50 (cell toxicity CC50) [µM] |
| --- | --- | --- | --- | --- | --- |
| 2-(2,6-Difluorophenyl)-N-[(3S)-9-fluoro-2-oxo-5-phenyl-1,3-dihydro-1,4-benzodiazepin-3-yl]-6,7-dihydro-5H-pyrazolo[5,1-b][1,3]oxazine-3-carboxamide [Example 196] | 25 | > 25 |  |  |  |
| O=C(N[C@H]1N=C(c2ccccc2)c2cccc(F)c2NC1=O)c1c(-c2c(F)cccc2F)nn2c1OC(CO)CC2 (single isomer, unassigned) [Example 189-2, (5S*)-2-(2,6-Difluorophenyl)-N-[(3S)-9-fluoro-2-oxo-5-phenyl-1,3-dihydro-1,4-benzodiazepin-3-yl]-5-(hydroxymethyl)-6,7-dihydro-5H-pyrazolo[5,1-b][1,3]oxazine-3-carboxamide] |  | > 25 | 72 |  |  |
| O=C(N[C@H]1N=C(c2ccccc2)c2cccc(F)c2NC1=O)c1c(-c2ccccc2F)nn2c1OCC(CO)C2 (single isomer, unassigned) [Example 110-2, (6S*)-N-[(3S)-9-fluoro-2-oxo-5-phenyl-1,3-dihydro-1,4-benzodiazepin-3-yl]-2-(2-fluorophenyl)-6-(hydroxymethyl)-6,7-dihydro-5H-pyrazolo[5,1-b][1,3]oxazine-3-carboxamide] |  | > 25 | 61 |  |  |
| (5R)-N-[(3S)-9- fluoro-2-oxo-5- phenyl-1,3-dihydro- 1,4-benzodiazepin-3- yl]-5-methyl-2-(1- propan-2-ylpyrazol- 4-yl)-6,7-dihydro- 5H-pyrazolo[5,1- b][1,3]oxazine-3- carobxamide [Example 112] | 50 | > 25 |  |  |  |
| (5R)-2-[2-Fluoro-4- (hydroxymethyl)phe- nyl]-N-[(3S)-9- fluoro-2-oxo-5- phenyl-1,3-dihydro- 1,4-benzodiazepin-3- yl]-5-methyl-6,7- dihydro-5H- pyrazolo[5,1- b][1,3]oxazine-3- carboxamide [Example 153] | 63 | > 25 |  |  |  |
| (5R)-N-[(3S)-9- fluoro-2-oxo-5- phenyl-1,3-dihydro- 1,4-benzodiazepin-3- yl]-5-methyl-2-[1- (oxan-4-yl)pyrazol- 4-yl]-6,7-dihydro- 5H-pyrazolo[5,1- b][1,3]oxazine-3- carboxamide [Example 111] | 64 | > 25 |  |  |  |
| COCC1CCn2nc(-c3ccccc3F)c(C(=O)N[C@H]3N=C(c4ccccc4)c4cccc(F)c4NC3=O)c2O1 (single isomer, unassigned) [Example 191-2, (5S*)-N-[(3S)-9-fluoro-2-oxo-5-phenyl-1,3-dihydro-1,4-benzodiazepin-3-yl]-2-(2-fluorophenyl)-5-(methoxymethyl)-6,7-dihydro-5H-pyrazolo[5,1-b][1,3]oxazine-3-carboxamide] |  | > 25 | 280 |  |  |
| O=C(N[C@H]1N=C(c2ccccc2)c2ccccc2NC1=O)c1c(-c2c(F)cccc2F)nn2c1OC(CO)CC2 (single isomer, unassigned) [Example 188-2, (5S*)-2-(2,6-Difluorophenyl)-5-(hydroxymethyl)-N-[(3S)-2-oxo-5-phenyl-1,3-dihydro-1,4-benzodiazepin-3-yl]-6,7-dihydro-5H-pyrazolo[5,1-b][1,3]oxazine-3-carboxamide] |  | > 25 | 281 |  |  |
| C[C@H]1CCn2nc(-c3ccncc3F)c(C(=O)N[C@H]3N=C(c4ccccc4)c4cccc(F)c4NC3=O)c2O1 [Example 76, (5S)-N-[(3S)-9-fluoro-2-oxo-5-phenyl-1,3-dihydro-1,4-benzodiazepin-3-yl]-2-(3-fluoropyridin-4-yl)-5-methyl-6,7-dihydro-5H-pyrazolo[5,1-b][1,3]oxazine-3-carboxamide] |  |  |  | 93 | > 25 |
| COC1CN(c2ccc(-c3nn4c(c3C(=O)N[C@H]3N=C(c5ccccc5)c5cccc(F)c5NC3=O)O[C@H](C)CC4)cn2)C1 [Example 144, (5R)-N-[(3S)-9-fluoro-2-oxo-5-phenyl-1,3-dihydro-1,4-benzodiazepin-3-yl]-2-[6-(3-methoxyazetidin-1-yl)pyridin-3-yl]-5-methyl-6,7-dihydro-5H-pyrazolo[5,1-b][1,3]oxazine-3-carboxamide] |  |  |  | 101 | > 25 |
| O=C(N[C@H]1N=C(c2ccccc2)c2ccccc2NC1=O)c1c(-c2ccccc2)nn2c1OCCC2 [Example 22, N-[(3S)-2-oxo-5-phenyl-1,3-dihydro-1,4-benzodiazepin-3-yl]-2-phenyl-6,7-dihydro-5H-pyrazolo[5,1-b][1,3]oxazine-3-carboxamide] |  |  |  | 140 | > 25 |
| O=C(N[C@H]1N=C(c2ccccc2)c2cccc(F)c2NC1=O)c1c(-c2ccccc2F)nn2c1OC(CN1CCCC1)CC2 (stereo partly drawn) [Example 187, N-[(3S)-9-fluoro-2-oxo-5-phenyl-1,3-dihydro-1,4-benzodiazepin-3-yl]-2-(2-fluorophenyl)-5-(pyrrolidin-1-ylmethyl)-6,7-dihydro-5H-pyrazolo[5,1-b][1,3]oxazine-3-carboxamide] |  |  |  | 249 | > 8.84 |
| CCc1ccc(-c2nn3c(c2C(=O)N[C@H]2N=C(c4ccccc4)c4ccccc4NC2=O)OCC2(CCC2)C3)cn1 [Example 176, 2-(6-Ethylpyridin-3-yl)-N-[(3S)-2-oxo-5-phenyl-1,3-dihydro-1,4-benzodiazepin-3-yl]spiro[5,7-dihydropyrazolo[5,1-b][1,3]oxazine-6,1′-cyclobutane]-3-carboxamide] |  |  |  | 63 | > 25 |
| C[C@@H]1CCn2nc(-c3cnn(CCO)c3)c(C(=O)N[C@H]3N=C(c4ccccc4)c4cccc(F)c4NC3=O)c2O1 [Example 117, (5R)-N-[(3S)-9-fluoro-2-oxo-5-phenyl-1,3-dihydro-1,4-benzodiazepin-3-yl]-2-[1-(2-hydroxyethyl)pyrazol-4-yl]-5-methyl-6,7-dihydro-5H-pyrazolo[5,1-b][1,3]oxazine-3-carboxamide] |  |  |  | 434 | > 25 |
| O=C(N[C@H]1N=C(c2ccccc2)c2cccc(F)c2NC1=O)c1c(-c2ccc(CN3CCOCC3)cc2F)nn2c1OCCC2 [Example 101, 2-[2-Fluoro-4-(morpholin-4-ylmethyl)phenyl]-N-[(3S)-9-fluoro-2-oxo-5-phenyl-1,3-dihydro-1,4-benzodiazepin-3-yl]-6,7-dihydro-5H-pyrazolo[5,1-b][1,3]oxazine-3-carboxamide] |  |  |  | 123 | > 25 |
| C[C@@H]1CCn2nc(-c3ccc(S(C)(=O)=O)cc3F)c(C(=O)N[C@H]3N=C(c4ccccc4)c4ccccc4NC3=O)c2O1 [Example 141, (5R)-2-(2-Fluoro-4-methylsulfonylphenyl)-5-methyl-N-[(3S)-2-oxo-5-phenyl-1,3-dihydro-1,4-benzodiazepin-3-yl]-6,7-dihydro-5H-pyrazolo[5,1-b][1,3]oxazine-3-carboxamide] |  |  |  | 20 | > 25 |
| CCc1ccc(-c2nn3c(c2C(=O)N[C@H]2N=C(c4ccccc4)c4ccccc4NC2=O)O[C@@H](C)CC3)cn1 [Example 132, (5S)-2-(6-Ethylpyridin-3-yl)-5-methyl-N-[(3S)-2-oxo-5-phenyl-1,3-dihydro-1,4-benzodiazepin-3-yl]-6,7-dihydro-5H-pyrazolo[5,1-b][1,3]oxazine-3-carboxamide] |  |  |  | 72 | > 25 |
| CC(C)Nc1ccc(-c2nn3c(c2C(=O)N[C@H]2N=C(c4ccccc4)c4ccccc4NC2=O)OCC2(CC2)C3)cn1 [Example 178, 2-[6-(Propan-2-ylamino)pyridin-3-yl]-N-[(3S)-2-oxo-5-phenyl-1,3-dihydro-1,4-benzodiazepin-3-yl]spiro[5,7-dihydropyrazolo[5,1-b][1,3]oxazine-6,1′-cyclopropane]-3-carboxamide] |  |  |  | 75 | > 25 |
| C[C@@H]1CCn2nc(-c3ccc(CN(C)C)cc3F)c(C(=O)N[C@H]3N=C(c4ccccc4)c4cccc(F)c4NC3=O)c2O1 [Example 170, (5R)-2-[4-[(Dimethylamino)methyl]-2-fluorophenyl]-N-[(3S)-9-fluoro-2-oxo-5-phenyl-1,3-dihydro-1,4-benzodiazepin-3-yl]-5-methyl-6,7-dihydro-5H-pyrazolo[5,1-b][1,3]oxazine-3-carboxamide] |  |  |  | 60 | > 25 |
| CCc1ccc(-c2nn3c(c2C(=O)N[C@H]2N=C(c4ccccc4)c4cccc(F)c4NC2=O)OCC2(CCC2)C3)cn1 [Example 177, 2-(6-Ethylpyridin-3-yl)-N-[(3S)-9-fluoro-2-oxo-5-phenyl-1,3-dihydro-1,4-benzodiazepin-3-yl]spiro[5,7-dihydropyrazolo[5,1-b][1,3]oxazine-6,1′-cyclobutane]-3-carboxamide] |  |  |  | 125 | > 25 |
| O=C(N[C@H]1N=C(c2ccccc2)c2cccc(F)c2NC1=O)c1c(Br)nn2c1OCCC2 [Example 195, 2-Bromo-N-[(3S)-9-fluoro-2-oxo-5-phenyl-1,3-dihydro-1,4-benzodiazepin-3-yl]-6,7-dihydro-5H-pyrazolo[5,1-b][1,3]oxazine-3-carboxamide] |  |  |  | 355 | > 25 |
| CC(C)NCc1ccc(-c2nn3c(c2C(=O)N[C@H]2N=C(c4ccccc4)c4cccc(F)c4NC2=O)O[C@H](C)CC3)c(F)c1 [Example 183, (5R)-N-[(3S)-9-fluoro-2-oxo-5-phenyl-1,3-dihydro-1,4-benzodiazepin-3-yl]-2-[2-fluoro-4-[(propan-2-ylamino)methyl]phenyl]-5-methyl-6,7-dihydro-5H-pyrazolo[5,1-b][1,3]oxazine-3-carboxamide] |  |  |  | 294 | > 25 |
